Reference: ChEMBL document CHEMBL2029263, “New myrsinol diterpenes from Euphorbia prolifera and their inhibitory activities on LPS-induced NO production” (Bioorg Med Chem Lett, 2012)

Assays:
BV-2 [1] = experiment: Inhibition of LPS-induced NO production in mouse BV2 cells after 20 hrs by Griess assay; assay type: functional, cell-based; settings: BV-2, 20 h
BV-2 [2] = experiment: Cytotoxicity against mouse BV2 cells at effective concentration after 20 hrs by MTT assay; assay type: cell-based; settings: bv-2, 20 h

SMILES | IC50 (BV-2 [1]) | Activity (BV-2 [2])
CSC(=N)N | 13.2 µM | 
C=C(C)[C@H]1C=C[C@@H](OC(=O)c2cccnc2)[C@@]23CO[C@@](C)([C@H](OC(=O)c4cccnc4)[C@@]4(OC(C)=O)C[C@H](C)[C@H](OC(=O)CC)[C@@H]4[C@H]2OC(C)=O)[C@H]13 | 80.2 µM | Non-toxic
CC(=O)O[C@@H]1[C@H]2[C@@H](OC(=O)c3cccnc3)[C@@H](C)C[C@]2(OC(C)=O)[C@@H](OC(C)=O)[C@]2(C)OC[C@]13C(=O)C=C[C@H](C(C)(C)OC(C)=O)[C@@H]23 [EUPHORBIALOID E] | 33.7 µM | Non-toxic
CCC(=O)O[C@@H]1[C@@H]2[C@@H](OC(C)=O)[C@@]34CO[C@@](C)([C@H](OC(=O)c5cccnc5)[C@@]2(OC(C)=O)C[C@@H]1C)[C@@H]3[C@@H](C(C)(C)OC(C)=O)C=CC4=O [EUPHORBIALOID F] | 36.5 µM | Non-toxic
CCC(=O)O[C@@H]1[C@@H]2[C@@H](OC(C)=O)[C@@]34CO[C@@](C)([C@H](OC(C)=O)[C@@]2(O)C[C@@H]1C)[C@@H]3[C@@H]1[C@@H](C[C@]1(C)OC(C)=O)[C@@H](OC(=O)c1cccnc1)C4=O [EUPHORBIALOID G] | 48.7 µM | Non-toxic
CCC(=O)O[C@@H]1[C@@H]2[C@@H](OC(C)=O)[C@@]34CO[C@@](C)([C@H](OC(=O)c5cccnc5)[C@@]2(OC(C)=O)C[C@@H]1C)[C@@H]3[C@@H]1[C@@H](C[C@]1(C)OC(C)=O)[C@@H](OC(=O)c1ccccc1)C4=O [EUPHORBIALOID H] | 64.3 µM | Non-toxic
CCC(=O)O[C@@H]1[C@@H]2[C@@H](OC(C)=O)[C@@]34CO[C@@](C)([C@@H](OC(=O)c5ccccc5)[C@@]2(OC(C)=O)C[C@@]1(C)OC(=O)c1cccnc1)[C@@H]3[C@@H](C(C)(C)OC(C)=O)C=C[C@H]4OC(C)=O [EUPHORBIALOID I] | 41.3 µM | Non-toxic
CC(=O)O[C@@H]1[C@H]2[C@@H](OC(=O)c3cccnc3)[C@](C)(OC(=O)C(C)C)C[C@]2(OC(C)=O)[C@H](OC(=O)c2ccccc2)[C@]2(C)OC[C@]13[C@H](OC(C)=O)C=C[C@H](C(C)(C)OC(C)=O)[C@@H]23 [EUPHORBIALOID J] | 43.8 µM | Non-toxic

Second part, led by results:

IC50 (BV-2 [1]) | SMILES | Activity (BV-2 [2])
74.3 µM | C=C(C)[C@H]1C=C[C@@H](OC(=O)c2ccccc2)[C@@]23CO[C@@](C)([C@H](OC(=O)c4cccnc4)[C@@]4(OC(C)=O)C[C@H](C)[C@H](OC(=O)CC)[C@@H]4[C@H]2OC(C)=O)[C@H]13 | Non-toxic
19.4 µM | CCC(=O)O[C@@H]1[C@@H]2[C@@H](OC(=O)c3ccccc3)[C@@]3(COC(=O)c4cccnc4)[C@@H]([C@@H]4[C@H](C[C@H]3OC(C)=O)C4(C)C)[C@](C)(O)C(=O)[C@@]2(O)C[C@@H]1C [EUPHORBIALOID A] | Non-toxic
15.6 µM | CC(=O)O[C@@H]1[C@@H]2[C@@H](OC(=O)c3ccccc3)[C@@]3(COC(=O)c4cccnc4)[C@@H]([C@@H]4[C@H](C[C@H]3OC(C)=O)C4(C)C)[C@](C)(O)C(=O)[C@@]2(O)C[C@@H]1C [EUPHORBIALOID B] | Non-toxic
29.7 µM | CCC(=O)O[C@@H]1[C@@H]2[C@@H](OC(=O)c3ccccc3)[C@@]3(COC(=O)c4cccnc4)[C@@H]([C@@H]4[C@H](C[C@H]3OC(C)=O)C4(C)C)[C@](C)(OC(C)=O)C(=O)[C@@]2(O)C[C@@H]1C [EUPHORBIALOID C] | Non-toxic
35.2 µM | CCCC(=O)O[C@@H]1[C@@H]2[C@@H](OC(=O)c3ccccc3)[C@@]3(COC(=O)c4cccnc4)[C@@H]([C@@H]4[C@H](C[C@H]3OC(C)=O)C4(C)C)[C@](C)(OC(C)=O)C(=O)[C@@]2(O)C[C@@H]1C [EUPHORBIALOID D] | Non-toxic
